{"source": "paper PMC12337661", "about": "“PIEZO1 mechanical insensitivity in generalized lymphatic dysplasia with the potential for pharmacological rescue” (iScience, 2025)", "key": {"[1]": {"experiment": "Aqueous (kinetic) solubility", "type": "physicochemical", "conditions": "pH 7.4, aqueous buffer, kinetic from dmso stock; physiological pH in PBS", "experimental": "(§1) Aqueous solubility, mouse microsomal stability and mouse plasma protein binding assays were performed by Malvern Panalytical (UK) as previously described.[29]"}, "[2]": {"experiment": "Mouse microsomal stability", "type": "in vitro ADME", "conditions": "mouse microsomes", "experimental": "as §1"}, "[3]": {"experiment": "Mouse plasma protein binding", "type": "in vitro ADME", "experimental": "as §1"}, "G1994D mPIEZO1 [4]": {"target": "T1, G1994D mPIEZO1 (Mus musculus, UniProt E2JF22, G1994D)", "T1 construct": "expressed in transfected cells", "T1 sequence (E2JF22 whole entry G1994D)": "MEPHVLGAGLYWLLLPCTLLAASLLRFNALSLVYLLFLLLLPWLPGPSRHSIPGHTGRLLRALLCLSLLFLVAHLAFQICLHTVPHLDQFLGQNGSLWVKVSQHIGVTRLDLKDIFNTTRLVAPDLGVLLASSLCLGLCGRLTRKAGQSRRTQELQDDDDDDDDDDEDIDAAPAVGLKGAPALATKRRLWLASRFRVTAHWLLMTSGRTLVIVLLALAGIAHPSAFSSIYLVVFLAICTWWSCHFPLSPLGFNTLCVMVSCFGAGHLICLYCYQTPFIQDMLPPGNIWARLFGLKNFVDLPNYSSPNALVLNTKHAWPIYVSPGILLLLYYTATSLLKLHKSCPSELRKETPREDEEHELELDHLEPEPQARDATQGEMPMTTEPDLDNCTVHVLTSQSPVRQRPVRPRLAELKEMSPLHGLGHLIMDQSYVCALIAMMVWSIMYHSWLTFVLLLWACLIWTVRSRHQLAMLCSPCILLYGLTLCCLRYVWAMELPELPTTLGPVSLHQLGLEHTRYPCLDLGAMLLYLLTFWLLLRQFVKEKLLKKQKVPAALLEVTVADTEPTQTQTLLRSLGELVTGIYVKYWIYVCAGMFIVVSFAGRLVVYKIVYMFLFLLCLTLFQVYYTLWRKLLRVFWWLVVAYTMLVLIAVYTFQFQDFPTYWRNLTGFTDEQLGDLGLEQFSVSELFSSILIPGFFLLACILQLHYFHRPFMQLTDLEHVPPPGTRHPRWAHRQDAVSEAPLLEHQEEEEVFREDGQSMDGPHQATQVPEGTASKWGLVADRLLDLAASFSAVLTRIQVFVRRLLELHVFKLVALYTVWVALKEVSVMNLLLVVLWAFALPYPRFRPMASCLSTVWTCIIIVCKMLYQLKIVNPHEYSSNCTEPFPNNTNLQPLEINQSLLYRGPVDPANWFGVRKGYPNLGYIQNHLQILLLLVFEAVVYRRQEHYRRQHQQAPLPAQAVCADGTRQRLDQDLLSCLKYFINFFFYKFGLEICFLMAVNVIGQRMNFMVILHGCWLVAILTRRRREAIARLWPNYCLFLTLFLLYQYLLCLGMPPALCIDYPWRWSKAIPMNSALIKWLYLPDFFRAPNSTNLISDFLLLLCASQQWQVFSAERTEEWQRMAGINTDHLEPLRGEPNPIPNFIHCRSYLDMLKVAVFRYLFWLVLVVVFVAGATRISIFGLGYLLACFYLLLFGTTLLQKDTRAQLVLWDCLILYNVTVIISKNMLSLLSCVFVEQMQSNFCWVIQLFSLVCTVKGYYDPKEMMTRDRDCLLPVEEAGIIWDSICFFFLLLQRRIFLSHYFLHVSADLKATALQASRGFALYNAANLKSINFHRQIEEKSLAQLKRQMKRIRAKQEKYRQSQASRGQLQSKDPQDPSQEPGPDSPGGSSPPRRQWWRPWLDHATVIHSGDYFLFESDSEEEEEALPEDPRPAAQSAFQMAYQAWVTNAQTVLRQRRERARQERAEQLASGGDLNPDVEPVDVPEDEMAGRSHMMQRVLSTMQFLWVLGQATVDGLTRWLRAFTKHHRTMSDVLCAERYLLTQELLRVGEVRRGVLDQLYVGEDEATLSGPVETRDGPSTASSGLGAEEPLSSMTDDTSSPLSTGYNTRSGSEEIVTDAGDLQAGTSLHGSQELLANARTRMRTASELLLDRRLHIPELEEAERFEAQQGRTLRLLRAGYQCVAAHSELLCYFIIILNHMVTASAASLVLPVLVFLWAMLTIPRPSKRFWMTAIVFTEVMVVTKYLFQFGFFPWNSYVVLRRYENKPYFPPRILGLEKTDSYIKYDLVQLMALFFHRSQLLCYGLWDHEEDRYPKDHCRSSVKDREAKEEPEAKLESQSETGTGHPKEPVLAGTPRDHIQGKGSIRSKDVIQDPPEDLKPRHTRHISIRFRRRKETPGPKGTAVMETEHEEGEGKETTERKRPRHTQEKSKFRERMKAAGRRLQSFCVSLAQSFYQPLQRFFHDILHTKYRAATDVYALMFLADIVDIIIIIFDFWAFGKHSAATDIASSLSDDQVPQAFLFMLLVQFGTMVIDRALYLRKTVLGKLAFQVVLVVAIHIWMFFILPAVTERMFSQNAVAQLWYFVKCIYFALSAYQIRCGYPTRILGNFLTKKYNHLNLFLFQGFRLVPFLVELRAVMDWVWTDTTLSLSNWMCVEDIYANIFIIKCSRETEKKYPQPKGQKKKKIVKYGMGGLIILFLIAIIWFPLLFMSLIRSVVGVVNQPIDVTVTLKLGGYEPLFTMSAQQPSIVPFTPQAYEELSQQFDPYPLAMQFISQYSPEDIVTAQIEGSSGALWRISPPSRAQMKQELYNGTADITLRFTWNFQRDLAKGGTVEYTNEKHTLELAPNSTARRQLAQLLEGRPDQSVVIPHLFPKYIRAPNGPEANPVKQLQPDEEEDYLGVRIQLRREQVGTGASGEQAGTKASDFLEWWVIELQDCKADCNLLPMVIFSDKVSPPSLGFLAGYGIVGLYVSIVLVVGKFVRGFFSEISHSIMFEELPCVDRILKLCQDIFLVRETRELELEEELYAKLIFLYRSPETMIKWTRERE", "experiment": "Outside-out patch recording with pressure pulses", "type": "cell-based", "conditions": "for Currents at given pressure / Pressure-response, individual cells (Figure 5f) / Mean (pressure-response, Figure 5f): G1994D + Yoda1; for Pressure-response, individual cells (Figure 5f): cell1-cell10; for Mean (pressure-response, Figure 5f): mean of cells 1-10", "experimental": "(§2) Ionic currents were recorded through outside-out patches from cells using standard patch-clamp techniques in voltage-clamp mode. Patch pipettes were fire-polished and had resistance of 4–7 MΩ when filled with pipette solution. Ionic solution of composition (mM) NaCl 140, HEPES 10 and EGTA 5 (titrated to pH 7.4 using NaOH) was used in both the pipette and bath. Recordings were at a constant holding potential of −80 mV. 200-ms pressure steps were applied to the patch pipette with an interval of 12 s using High Speed Pressure Clamp HSPC-1 System (ALA Scientific Instruments, USA). All recordings were made with an Axopatch-200B amplifier (Axon Instruments, Inc., USA) equipped with Digidata 1550B and pClamp (v10.6) software (Molecular Devices, USA) at room temperature (21 ± 2°C). Currents were filtered at 2–5 kHz and digitally sampled at 5–20 kHz."}, "I2286T mPIEZO1": {"target": "T2, I2286T mPIEZO1 (Mus musculus, UniProt E2JF22, I2286T)", "T2 construct": "expressed in transfected cells", "T2 sequence (E2JF22 whole entry I2286T)": "as the sequence (E2JF22 whole entry G1994D) above, with D1994G, I2286T counted along it", "experiment": "Outside-out patch recording with pressure pulses", "type": "cell-based", "conditions": "5 μM; for current (example trace): 75 mmHg pulses", "experimental": "as §2"}, "R2351Q mPIEZO1": {"target": "T3, R2351Q mPIEZO1 (Mus musculus, UniProt E2JF22, R2351Q)", "T3 construct": "expressed in transfected cells", "T3 sequence (E2JF22 whole entry R2351Q)": "as the sequence (E2JF22 whole entry G1994D) above, with D1994G, R2351Q counted along it", "experiment": "Outside-out patch recording with pressure pulses", "type": "cell-based", "experimental": "as §2"}, "G1994D mPIEZO1 [5]": {"target": "T1, G1994D mPIEZO1", "experiment": "Long substance exposure (20 min exposure) Ca2+ assay", "type": "cell-based", "description": "Supplement mmc2.xlsx, sheet \"Figure 5e\" | column: Mean normalise fluorescence"}, "[6]": {"design": "method as in PMID 36457143, PMID 38716967, PMID 39402010", "conditions": "cited from earlier work"}, "mice": {"system": "mice", "conditions": "cited from earlier work"}}, "note": "“And” between values parts separate entries of the source, which are not always exact repeats. Equal values may be shown once.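 Wherever Mean (pressure-response, Figure 5f) is given: peak current normalised to each patch's maximum peak current.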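 Wherever Pressure-response, individual cells (Figure 5f) is given: peak current normalised to each patch's maximum peak current.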", "data": [{"molecule": "O=C(O)c1ccc(-c2cnc(SCc3c(Cl)cccc3Cl)s2)cc1", "note": "[Yoda2b, 4-(2-([(2,6-Dichlorophenyl)methyl]sulfanyl)-1,3-thiazol-5-yl)benzoic acid]", "values": [{"measurement": "solubility kinetic", "setting": "[1]", "value": 6.1, "unit": "µM"}, {"measurement": "half-life", "setting": "[2]", "value": 7.2, "unit": "min"}, {"measurement": "unbound to mouse plasma proteins", "setting": "[3]", "value": 0.4, "unit": "%"}]}, {"molecule": "Clc1cccc(Cl)c1CSc1nnc(-c2cnccn2)s1", "note": "[Yoda1]", "values": [{"measurement": "Currents at given pressure", "setting": "G1994D mPIEZO1 [4]; 0 mmHg, time 200.1 ms", "value": -1.831, "unit": "pA"}, {"measurement": "Currents at given pressure", "setting": "G1994D mPIEZO1 [4]; 0 mmHg, time 200.15 ms", "value": 0.2743, "unit": "pA"}, {"measurement": "Currents at given pressure", "setting": "G1994D mPIEZO1 [4]; 0 mmHg, time 200.2 ms", "value": -1.526, "unit": "pA"}, {"measurement": "Currents at given pressure", "setting": "G1994D mPIEZO1 [4]; 15 mmHg, time 200.1 ms", "value": 1.03, "unit": "pA"}, {"measurement": "Currents at given pressure", "setting": "G1994D mPIEZO1 [4]; 15 mmHg, time 200.15 ms", "value": -0.5571, "unit": "pA"}, {"measurement": "Currents at given pressure", "setting": "G1994D mPIEZO1 [4]; 15 mmHg, time 200.2 ms", "value": -0.1298, "unit": "pA"}, {"measurement": "Currents at given pressure", "setting": "G1994D mPIEZO1 [4]; 30 mmHg, time 200.1 ms", "value": -11.9666, "unit": "pA"}, {"measurement": "Currents at given pressure", "setting": "G1994D mPIEZO1 [4]; 30 mmHg, time 200.15 ms", "value": -9.769, "unit": "pA"}, {"measurement": "Currents at given pressure", "setting": "G1994D mPIEZO1 [4]; 30 mmHg, time 200.2 ms", "value": -5.161, "unit": "pA"}, {"measurement": "Currents at given pressure", "setting": "G1994D mPIEZO1 [4]; 45 mmHg, time 200.1 ms", "value": -2.0839, "unit": "pA"}, {"measurement": "Currents at given pressure", "setting": "G1994D mPIEZO1 [4]; 45 mmHg, time 200.15 ms", "value": -0.6801, "unit": "pA"}, {"measurement": "Currents at given pressure", "setting": "G1994D mPIEZO1 [4]; 45 mmHg, time 200.2 ms", "value": -0.497, "unit": "pA"}, {"measurement": "Currents at given pressure", "setting": "G1994D mPIEZO1 [4]; 60 mmHg, time 200.1 ms", "value": 1.1543, "unit": "pA"}, {"measurement": "Currents at given pressure", "setting": "G1994D mPIEZO1 [4]; 60 mmHg, time 200.15 ms", "value": -0.9209, "unit": "pA"}, {"measurement": "Currents at given pressure", "setting": "G1994D mPIEZO1 [4]; 60 mmHg, time 200.2 ms", "value": -0.8599, "unit": "pA"}, {"measurement": "Currents at given pressure", "setting": "G1994D mPIEZO1 [4]; 75 mmHg, time 200.1 ms", "value": -0.6364, "unit": "pA"}, {"measurement": "Currents at given pressure", "setting": "G1994D mPIEZO1 [4]; 75 mmHg, time 200.15 ms", "value": 0.6148, "unit": "pA"}, {"measurement": "Currents at given pressure", "setting": "G1994D mPIEZO1 [4]; 75 mmHg, time 200.2 ms", "value": 0.06549, "unit": "pA"}, {"measurement": "Currents at given pressure", "setting": "G1994D mPIEZO1 [4]; 90 mmHg, time 200.1 ms", "value": -1.92, "unit": "pA"}, {"measurement": "Currents at given pressure", "setting": "G1994D mPIEZO1 [4]; 90 mmHg, time 200.15 ms", "value": -2.409, "unit": "pA"}, {"measurement": "Currents at given pressure", "setting": "G1994D mPIEZO1 [4]; 90 mmHg, time 200.2 ms", "value": -0.1504, "unit": "pA"}, {"measurement": "Currents at given pressure", "setting": "G1994D mPIEZO1 [4]; 105 mmHg, time 200.1 ms", "value": -0.4419, "unit": "pA"}, {"measurement": "Currents at given pressure", "setting": "G1994D mPIEZO1 [4]; 105 mmHg, time 200.15 ms", "value": -1.449, "unit": "pA"}, {"measurement": "Currents at given pressure", "setting": "G1994D mPIEZO1 [4]; 105 mmHg, time 200.2 ms", "value": 0.2905, "unit": "pA"}, {"measurement": "Pressure-response, individual cells (Figure 5f)", "setting": "G1994D mPIEZO1 [4]; pressure 0 mmHg", "value": "1.59E-17 and -8.38E-17 and 0 (4×) and -2.96E-17 and -2.69E-17 and -3.91E-17 and 3.74E-17"}, {"measurement": "Mean (pressure-response, Figure 5f)", "setting": "G1994D mPIEZO1 [4]; pressure 0 mmHg", "value": "-1.26E-17"}, {"measurement": "Pressure-response, individual cells (Figure 5f)", "setting": "G1994D mPIEZO1 [4]; pressure 15 mmHg", "value": "0.08197 and 0.01125 and 0.01265 and 0.01555 and 0.01655 and 0.00717 and 0.01084 and 0.05939 and 0.00309 and 0.1064"}, {"measurement": "Mean (pressure-response, Figure 5f)", "setting": "G1994D mPIEZO1 [4]; pressure 15 mmHg", "value": 0.03249}, {"measurement": "Pressure-response, individual cells (Figure 5f)", "setting": "G1994D mPIEZO1 [4]; pressure 30 mmHg", "value": "0.03806 and -0.00981 and 0.03807 and 0.05062 and 0.03544 and 0.00903 and 0.00593 and 0.02358 and 0.08822 and 0.1193"}, {"measurement": "Mean (pressure-response, Figure 5f)", "setting": "G1994D mPIEZO1 [4]; pressure 30 mmHg", "value": 0.03984}, {"measurement": "pressure for 50% activation (P50), Boltzmann mid-point", "setting": "G1994D mPIEZO1 [4]; in 5 μM Yoda1, -80 mV", "value": 64.0, "unit": "mmHg"}, {"measurement": "mechanical activation in the presence of the compound", "setting": "I2286T mPIEZO1; 75 mmHg pressure pulses", "value": "pressure-evoked current now occurred"}, {"measurement": "current (example trace)", "setting": "I2286T mPIEZO1; time 30.5 ms", "value": -0.41, "unit": "pA"}, {"measurement": "current (example trace)", "setting": "I2286T mPIEZO1; time 30.5002 ms", "value": -0.2269, "unit": "pA"}, {"measurement": "current (example trace)", "setting": "I2286T mPIEZO1; time 30.5004 ms", "value": -0.5932, "unit": "pA"}, {"measurement": "maximum amplitude of current evoked by the pressure pulse, Mean", "setting": "I2286T mPIEZO1; 75 mmHg, -80 mV, n = 7", "value": -80.8694, "unit": "pA"}, {"measurement": "mechanical activation in the presence of the compound", "setting": "R2351Q mPIEZO1; 5 μM, 75 mmHg pressure pulses", "value": "robust mechanical activation of the variant channels"}, {"measurement": "currents at given condition, individual cells (cell1-cell7)", "setting": "R2351Q mPIEZO1; R2351Q, Yoda1, Figure 4e", "value": "-87.925 pA and -24.5178 pA and -36.1129 pA and -20.7822 pA and -20.109 pA and -65.4339 pA and -114.364 pA"}, {"measurement": "currents at given condition, Mean", "setting": "R2351Q mPIEZO1; R2351Q, Yoda1, mean of 7 cells, Figure 4e", "value": -52.7493, "unit": "pA"}, {"measurement": "Mean normalise fluorescence (Figure 5e)", "setting": "G1994D mPIEZO1 [5]; Yoda1 concentration 0.03 µM", "value": 0.2099}, {"measurement": "Mean normalise fluorescence (Figure 5e)", "setting": "G1994D mPIEZO1 [5]; Yoda1 concentration 0.1 µM", "value": 0.1039}, {"measurement": "Mean normalise fluorescence (Figure 5e)", "setting": "G1994D mPIEZO1 [5]; Yoda1 concentration 0.3 µM", "value": 0.5452}, {"measurement": "Mean normalise fluorescence (Figure 5e)", "setting": "G1994D mPIEZO1 [5]; Yoda1 concentration 1 µM", "value": 1.026}, {"measurement": "Mean normalise fluorescence (Figure 5e)", "setting": "G1994D mPIEZO1 [5]; Yoda1 concentration 3 µM", "value": 1}, {"measurement": "Mean normalise fluorescence (Figure 5e)", "setting": "G1994D mPIEZO1 [5]; Yoda1 concentration 10 µM", "value": 1.103}, {"measurement": "aqueous solubility limit", "setting": "[6]", "value": "~2", "unit": "µM"}, {"measurement": "lymphatic valve formation", "setting": "mice; WT mice", "value": "accelerated lymphatic valve formation"}, {"measurement": "adverse effects of injection", "setting": "mice; mice injected", "value": "mostly not been adversely affected"}, {"measurement": "effect on edemas", "setting": "mice; mice", "value": "reduce peripheral and central edemas"}, {"measurement": "meningeal lymphatic network function", "setting": "mice; mice", "value": "restored meningeal lymphatic network function"}, {"measurement": "postsurgical lymphedema", "setting": "mice; mice", "value": "suppressed postsurgical lymphedema"}, {"measurement": "cerebrospinal fluid accumulation and ventricular enlargement", "setting": "mice; mouse models of Down syndrome", "value": "decreased pathological cerebrospinal fluid accumulation and ventricular enlargement"}]}]}
